Results published in ChEMBL document CHEMBL1151270, “Phenolic and triterpene glycosides from the stems of Ilex litseaefolia” (J Nat Prod, 2005).
Values after ≈ are worked out from the molar mass of the structure shown.

Test: Inhibition of lipase

Row | IC50 | Compound
1 | > 100 µg/mL | COc1cc(C(=O)OCc2ccc(O[C@@H]3O[C@H](COC(C)=O)[C@@H](O)[C@H](O)[C@H]3O)c(O)c2)ccc1O [LITSEAEFOLOSIDE A]
2 | 0.31 µg/mL (≈ 0.504 µM) | COc1cc(C(=O)OCc2ccc(O[C@@H]3O[C@H](COC(=O)/C=C/c4ccc(O)c(O)c4)[C@@H](O)[C@H](O)[C@H]3O)c(O)c2)ccc1O [LITSEAEFOLOSIDE C]
3 | > 100 µg/mL | COc1cc(C(=O)OCc2ccc(O[C@@H]3O[C@H](CO)[C@@H](O)[C@H](O)[C@H]3O)c(O)c2)ccc1O [VANILLOYL CALLERYANIN]
